Reference: BindingDB's records for doi:10.1021/jm9800144 (Smithkline Beecham, 1998)

Target: V-ATPase (Gallus gallus)
Assay: Compound was tested for inhibition of V-ATPase from Chicken osteoclasts (cOc)

IC50: 1900 nM
Compound: COC(=O)/C(=C\C=C\c1cc2cc(Cl)c(Cl)cc2[nH]1)OC [(2E,4E)-5-(5,6-Dichloro-1H-indol-2-yl)-2-methoxy-penta-2,4-dienoic acid methyl ester]
